Values of other authors, collected in patent US20110151017A1, “OPHTHALMIC SOLUTIONS WITH IMPROVED DISINFECTION PROFILES” (priority 2009, published 2011).

Settings: aqueous solution, forming tetrahydroxyborate

- Ka: 5.8e-10 mol/L
SMILES: OB(O)O [Boric acid]
